Reference: PMC6571965, “Importance of the Proximity and Orientation of Ligand-Linkage to the Design of Cinnamate-GW9662 Hybrid Compounds as Covalent PPARγ Agonists” (Molecules, 2019)
Entries after “also recorded” stand apart in the source; their conditions may differ. Like-named read-outs stand apart in the source and are kept apart here.

Key:
[1] = biological target: T1, human PPARγ LBD (Homo sapiens, UniProt P37231); set-up: expressed in transfected cells; host or cells: HepG2; method as in PMID 26414848; conditions: previously synthesized compound; read-out: EC50 value (partial agonistic activity); cited from earlier work
T1 sequence (P37231 238-503 limits assumed): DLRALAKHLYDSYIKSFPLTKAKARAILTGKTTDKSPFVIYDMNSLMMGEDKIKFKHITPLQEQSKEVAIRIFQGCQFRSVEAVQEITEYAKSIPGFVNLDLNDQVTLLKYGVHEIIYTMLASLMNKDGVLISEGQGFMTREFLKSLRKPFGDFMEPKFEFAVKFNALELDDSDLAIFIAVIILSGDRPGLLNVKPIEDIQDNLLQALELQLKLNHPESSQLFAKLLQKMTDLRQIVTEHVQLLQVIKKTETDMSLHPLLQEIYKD

[2] = biological target: T2, recombinant PPARγ LBD (Cys285) (Homo sapiens, UniProt P37231); test: Proteolytic mapping by MS/MS of ligand modification of PPARγ LBD; type: binding; conditions: PPARγ LBD 20 µM, ligand 40 µM, 30 min, trypsin digest
T2 construct: recombinant PPARγ LBD (2 µM) was mixed with various ligands; gift of Dr. Takuji Oyama (Yamanashi University)
T2 sequence (P37231 238-503 limits assumed): T1 sequence (P37231 238-503 limits assumed)
Text: (§1) To assess the interactions between the receptor and the synthesized compounds, we initially validated the formation of a covalent bond with Cys285 by performing a rhodamine-maleimide assay. This assay can detect the presence of a covalent modification of Cys285 in the PPARγ LBD because it has only one cysteine residue in its sequences. […] To further confirm the covalent bonding of the synthesized compounds, we conducted proteolytic mapping studies via mass spectroscopy using 4a as a representative compound and 4b as a negative control. The complexes between recombinant PPARγ LBD and the test compounds were trypsinized and subjected to MALDI-TOF MS. Covalent binding of 4a (mass of 466.1 Da) to the PPARγ LBD is assumed to result in a mass change of 431.1 Da for the modified tryptic peptide. By comparison of the tryptic digests of PPARγ, with and without 4a, a candidate peptide containing the attachment site for 4a ([…], m/z 499.7492 Da) was detected by its mass shift to m/z 714.8080 Da (detected as double charged; Figure 3B).
LC-MS/MS detection was performed as previously described. Briefly, purified recombinant PPARγ LBD (20 µM) was incubated with ligands (40 µM) in 20 mM Tris-HCl, pH8.0, 150 mM NaCl, and 1 mM TCEP for 30 min. […]
. […] The calculated y- and b-ions of this peptide with observed ions underlined and the native or modified peptides detected in chromatogram are shown.

[3] = biological target: T1, human PPARγ LBD; test: PPARγ reporter assay (GAL4 DNA-binding domain/PPARγ LBD chimera, pUAS-tk-Luc luciferase) in HepG2 cells; type: cell-based; set-up: expressed in transfected cells; host or cells: HepG2; conditions: for EC50 / PPARγ agonist activity (in words): HepG2 cells, pGal4-human PPARγLBD, 6 h treatment; for EC50: mean ± SD, read-out: EC50 (PPARγ agonist activity); for fold more potent than previously synthesized compound 3: PPARγ agonist activity, compared with 3
Procedure: PPARγ agonist activity was assessed by expression of a GAL4 DNA-binding domain/PPARγ LBD chimera protein using the plasmid pGAL4- PPARγ LBD and the luciferase reporter plasmid pUAS-tk-Luc containing the target sequence of GAL4 [20]. […] This supports our hypothesis that close proximity between the two fragments contributes to the improvement of binding affinity.
The PPARγ reporter assay was carried out as previously reported with slight modifications. pGal4-human PPARγLBD, pUAS-tk-luc and Renilla luciferase transfection control vector (pGL4.74, Promega, Madison, WI, USA) were transfected into HepG2 cells using Hily-max (Dojindo, Kumamoto, Japan) and PPARγ agonist activity was determined from the luciferase activity using the Dual-Luciferase Reporter Assay System (Promega) according to the manufacturer’s protocol.
Figure 2 Transactivation potentials of PPARγ by 4a, b, c, d, e, and 16. The luciferase reporter assay was performed in HepG2 cells transiently cotransfected with pGal4-humanPPARγLBD plasmid, pUAS-tk-Luc reporter, and pGL4.74[hRluc/TK] (Promega). Firefly luciferase activities were normalized to Renilla luciferase activities. Vehicle control data are denoted as 1. […] All the results are presented as the mean ± SD (n = 3) of three independent experiments. * p < 0.001, compared with vehicle control.

[4] = biological target: T1, human PPARγ LBD; test: Luciferase reporter assay after ligand withdrawal in HepG2 cells; conditions: 6 h treatment (troglitazone 10 μM; 4a, 4c 100 nM), washed, 24 h after withdrawal
Text: (§2) We first examined the relationship between covalent binding to the Cys285 residue and the agonist activity by a luciferase reporter gene assay using PPARγ mutants where the cysteine was substituted to an alanine (C285A). […] To examine this idea, we monitored the levels of luciferase activity upon withdrawal of the synthesized agonists.

[5] = biological target: T2, recombinant PPARγ LBD (Cys285); test: Rhodamine-maleimide assay for covalent modification of Cys285; type: binding; conditions: PPARγ LBD 2 µM, 30 min incubation at room temperature
Text: as §1
Rhodamine-Maleimide assay was performed as previously described. Briefly, recombinant PPARγ LBD (2 µM) was mixed with various ligands at the indicated concentrations in 20 mM Tris-HCl, pH8.0, 150 mM NaCl, and 1 mM tris(2-carboxylethyl)phosphine (TCEP). The mixture was incubated for 30 min at room temperature. SDS was added to the reaction mixture to a final concentration of 0.5%, followed by rhodamine red C2 maleimide (Life Technologies, Carlsbad, CA, USA) at a final concentration of 1 mM. After incubation at room temperature for 30 min, samples were treated with SDS-PAGE sample buffer containing β-mercaptoethanol for 30 min at 55 °C and were separated by SDS-PAGE. Fluorescent signals were visualized using the LAS1000 plus image analyzer (Fujifilm, Tokyo, Japan).
. (B), (C) Detection of covalent binding of 4a to Cys285 in the PPARγ LBD by ESI-MS/MS analysis. Fragmentation pattern of peptide […] was obtained from the trypsin digest. The calculated y- and b-ions of this peptide with observed ions underlined and the native or modified peptides detected in chromatogram are shown.

[6] = biological target: T3, human PPARγ LBD C285A mutant (Homo sapiens, UniProt P37231, C313A); test: Luciferase reporter gene assay with C285A mutant of pGal4-humanPPARγLBD in HepG2 cells; conditions: 6 h, troglitazone 10 μM
T3 sequence (P37231 232-505 C313A): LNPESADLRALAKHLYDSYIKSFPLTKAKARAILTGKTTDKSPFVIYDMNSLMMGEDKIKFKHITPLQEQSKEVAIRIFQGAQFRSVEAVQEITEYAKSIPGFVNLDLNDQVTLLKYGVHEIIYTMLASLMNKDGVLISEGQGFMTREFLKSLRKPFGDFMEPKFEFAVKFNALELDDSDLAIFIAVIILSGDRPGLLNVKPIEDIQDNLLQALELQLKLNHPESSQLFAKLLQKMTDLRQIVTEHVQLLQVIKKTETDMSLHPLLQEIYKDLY
Text: as §2

Row | EC50 [3] | SMILES | fluorescence of rhodamine-labeled PPARγ LBD (covalent bond with Cys285) [5] | PPARγ agonist activity (in words) [3] | other results
1 | 4.11 ± 0.13 nM | CCOC(=O)/C=C/c1ccc(Oc2ccccc2NC(=O)c2cc([N+](=O)[O-])ccc2Cl)cc1 [Compound 4c, (E)-Ethyl 3-{4-[2-(2-chloro-5-nitrobenzamido)phenoxy]phenyl}acrylate] | decrease of labeled PPARγ LBD was also found | – | fold more potent than previously synthesized compound 3 [3]: about 3 fold; luciferase transcription activity after withdrawal of ligand [4]: sustained transcription activity 24 h after withdrawal; transactivation in the C285A mutant [6]: did not show the transactivation
2 | 2.54 ± 1.3 nM | CCOC(=O)CCc1ccc(Oc2cccc(NC(=O)c3cc([N+](=O)[O-])ccc3Cl)c2)cc1 [Compound 4e, Ethyl 3-{4-[3-(2-chloro-5-nitrobenzamido)phenoxy]phenyl}propanoate] | – | – | –

Continued, molecule first:

Row | SMILES | EC50 [3] | fluorescence of rhodamine-labeled PPARγ LBD (covalent bond with Cys285) [5] | PPARγ agonist activity (in words) [3] | other results
3 | CCOC(=O)/C=C/c1ccc(OCCc2cccc(NC(=O)c3cc([N+](=O)[O-])ccc3Cl)c2)cc1 [Compound 3] | – | – | – | EC50 [1]: 14 nM
4 | CCOC(=O)/C=C/c1ccc(Oc2cccc(NC(=O)c3cc([N+](=O)[O-])ccc3Cl)c2)cc1 [Compound 4a, (E)-Ethyl 3-{4-[3-(2-chloro-5-nitrobenzamido)phenoxy]phenyl}acrylate] | 5.13 ± 0.45 nM | decrease of labeled PPARγ LBD was also found | – | covalent adduct with Cys285 detected by mass shift of tryptic peptide IFQGCQFR [2]: identified as the Cys285 residue; fold more potent than previously synthesized compound 3 [3]: about 3 fold; luciferase transcription activity after withdrawal of ligand [4]: sustained transcription activity 24 h after withdrawal; transactivation in the C285A mutant [6]: did not show the transactivation
5 | CCOC(=O)/C=C/c1ccc(Oc2cccc(NC(=O)c3cccc([N+](=O)[O-])c3)c2)cc1 [Compound 4b, (E)-Ethyl 3-{4-[3-(3-nitrobenzamido)phenoxy]phenyl}acrylate] | – | decrease of fluorescence was not observed | had no agonist activity | covalent adduct with Cys285 detected by mass shift of tryptic peptide IFQGCQFR [2]: these mass shifts were not exhibited
6 | CCOC(=O)/C=C/c1ccc(Oc2ccc(NC(=O)c3cc([N+](=O)[O-])ccc3Cl)cc2)cc1 [Compound 4d, (E)-Ethyl 3-{4-[4-(2-chloro-5-nitrobenzamido)phenoxy]phenyl}acrylate] | – | showed the decrease of fluorescence | completely abolished; also recorded: exhibited no agonistic activity | –
7 | CCOC(=O)/C=C/c1ccc(OCCc2ccc(NC(=O)c3cc([N+](=O)[O-])ccc3Cl)cc2)cc1 [Compound 16, (E)-Ethyl 3-(4-{2-[4-(2-chloro-5-nitrobenzamido)phenyl]ethoxy}phenyl)acrylate] | – | showed the decrease of fluorescence | disappearance of activity; also recorded: exhibited no agonistic activity | –
8 | O=C(Nc1ccccc1)c1cc([N+](=O)[O-])ccc1Cl [GW9662] | – | decreased | – | –
